Assay results: publication PMC4373826, “Antiviral Effect of Methylated Flavonol Isorhamnetin against Influenza” (PLoS ONE, 2015)
Marks after values point to notes of the source that are not given here.

How the values were obtained:
LC3B = experiment: Western blot for LC3B lipidation; type: cell-based, canine; details: 50 μM; post-treatment
Text: Autophagy can also be measured by changes in LC3B localization, because the degree of conversion of LC3B-I to LC3B-II provides an indicator of autophagic activity. Western blotting detected LC3B as 2 bands: cytosolic LC3B-I and membrane-bound LC3B-II (which is bound to the autophagosome membrane). The molecular weight of LC3B-II is greater than that of LC3B-I. However, due to its hydrophobicity, LC3B-II migrates faster in SDS-PAGE, and therefore, has a lower apparent molecular weight.
To prepare whole-cell extracts, cells were washed 3 times using cold PBS, scraped from the dishes, and suspended in protein extraction buffer containing 1% Triton X-100 (Amresco), 100 mM Tris-HCl, 10 mM NaCl, 10% glycerol, 1 mM sodium orthovanadate (Sigma-Aldrich), 50 mM sodium fluoride (Sigma-Aldrich), and 1 mM phenylmethylsulfonyl fluoride (PMSF; Sigma-Aldrich). After incubation on ice for 30 min, lysates were centrifuged and proteins in the supernatants were quantified using the Bradford Protein Assay Reagent (Bio-Rad). Protein samples were separated via 10% SDS-PAGE and transferred to nitrocellulose membranes ([…]; Protran, Newton, NJ, USA). The membranes were blocked using 5% nonfat dry milk and 0.1% Tween-20 in Tris-buffered saline and probed with the primary antibody. […]

[1] = system: influenza A/PR/8/34 (H1N1); type: cell-based, influenza A virus; details: post-treatment 48 hr
[2] = system: influenza A/PR/8/34 (H1N1) virus particles, chicken RBCs; details: lowest concentration
[3] = system: influenza viral genes HA and NA; experiment: RT-PCR of viral HA and NA genes; type: cell-based, influenza A virus
[4] = system: virus-induced ROS generation in MDCK cells; experiment: Virus-induced ROS generation assay (H2DCFDA); type: cell-based, canine; details: 50 μM
Method: For the ROS generation assay, MDCK cells were seeded onto 24-well plates and incubated overnight for 80% confluence. The MDCK cells were infected with the virus as described previously and then treated with the flavonoids (post-treatment method). Intracellular ROS levels were detected using a cell-permeable oxidant-sensitive fluorescent probe, 2′, 7′-dichiorofluorescin diacetate (H2DCFDA, Molecular Probes, Eugene, OR, USA). The cells were incubated with 10 μM of H2DCFDA for 30 min at 37°C in the dark. After incubation, the cells were washed twice and covered with PBS. The average ROS generation was determined by fluorescent images that were captured using Nikon Eclipse TE2000-U fluorescence inverted microscope (Nikon, Tokyo, Japan). In this experiment, we used N-acetyl-L-cysteine (NAC; Sigma-Aldrich), a ROS scavenger reagent, and at a concentration of 15 mM as a positive control treatment.

ERK = experiment: Western blot for ERK phosphorylation; type: cell-based, canine; details: 50 μM
Method: To prepare whole-cell extracts, cells were washed 3 times using cold PBS, scraped from the dishes, and suspended in protein extraction buffer containing 1% Triton X-100 (Amresco), 100 mM Tris-HCl, 10 mM NaCl, 10% glycerol, 1 mM sodium orthovanadate (Sigma-Aldrich), 50 mM sodium fluoride (Sigma-Aldrich), and 1 mM phenylmethylsulfonyl fluoride (PMSF; Sigma-Aldrich). After incubation on ice for 30 min, lysates were centrifuged and proteins in the supernatants were quantified using the Bradford Protein Assay Reagent (Bio-Rad). Protein samples were separated via 10% SDS-PAGE and transferred to nitrocellulose membranes ([…]; Protran, Newton, NJ, USA). The membranes were blocked using 5% nonfat dry milk and 0.1% Tween-20 in Tris-buffered saline and probed with the primary antibody. Western blotting was performed using antibodies against t-ERK, p-ERK, actin (Santa Cruz Biotechnology, Dallas, TX, USA), and LC3B (Novus Biologicals, San Diego, CA, USA), as well as anti-mouse, anti-rabbit, and anti-goat IgG-peroxidase-conjugated secondary antibodies (Santa Cruz Biotechnology) and an enhanced chemiluminescence (ECL) kit (Amersham Biosciences, Piscataway, NJ, USA).

[5] = system: influenza A/PR/8/34 (H1N1); experiment: In vivo antiviral assay in infected mice; design: species or system C57BL/6 mice
Method: Six-week-old female C57BL/6 mice purchased from KOATECH (Pyeongtaek, South Korea) infected with the PR8 influenza strain (A/PR/8/34, H1N1). After anesthesia, mice were inoculated with 4.25 log10EID50/mL (5 MLD50/mice) in 30 μL sterile PBS via the intranasal route. Two hours post-infection, each group (13 mice) received the following compounds: (1) Tamiflu capsules were dissolved in PBS at a concentration of 10mg/kg and then centrifuged at 1,000rpm/10minutes for removal of the filler. From this solution 200 μL was administered per day orally for 5 days, or (2) flavonoid (Isorhamnetin) was initially dissolved in 0.2% DMSO and then diluted in PBS to a final concentration of 1 mg/kg and less than 0.2% DMSO. This mixture mixed will by vortex and 30 μL of this mixture was administered per day via the intranasal route for 5 days.
One week after infection, the lungs of 3 mice per group were collected for the virology analysis. Lung tissues were excised, homogenized using a homogenizer (Tissue Lyser, Qiagen, Valencia, CA, USA), and centrifuged (2,000 g for 5 min). Ten-fold serial dilutions of the supernatant from the lung homogenate samples were subjected to the virology assays for virus titer determination. Lung homogenates were injected into the allantoic sac of 10-day-old embryonated eggs, which were incubated at 37°C for 48 hr, after which the allantoic fluid was harvested. The virus titer in the allantoic fluid was assessed using the HA assay. The virus titer (EID50/mL) in the fluid was calculated based on the method of Reed and Muench. For the assessments of body weight and survival rate, mice were observed daily for 14 days and monitored for clinical signs.

[6] = system: influenza A/PR/8/34 (H1N1); experiment: In ovo virus titer in embryonated chicken egg; type: in vivo
Method: Virus was serially diluted (10-fold serial dilution) and inoculated into the eggs, and then the virus titers were calculated as log10EID50/ml. At the cellular level, virus titration was determined via the hemagglutination assay (as described in detail in the WHO surveillance guidelines) and by the cytopathic effect (CPE) of MDCK cells induced by viral infection, and expressed as 50% tissue culture infectious doses (TCID50), which were calculated based on the method of Reed and Muench.In mice, 50% mouse lethal dose (MLD50) was defined as 50% egg infective dose (EID50) that led to 50% mice mortality that calculated according to Reed and Muench. The flavonoids quercetin, kaempferol, isorhamnetin, diosmetin, and eriodictyol were purchased from the Indofine Chemical Company, Hillsborough, NJ, USA. The flavonoids and PD-98059 (MEK inhibitor, Calbiochem, La Jolla, CA, USA) were dissolved in dimethylsulfoxide (DMSO, Sigma-Aldrich).The final concentration of DMSO in the culture media is 0.2% (v/v). Tamiflu (Oseltamivir, 75 mg) was purchased from Roche-Korea (Seoul, South Korea) Co. Ltd.

[7] = system: influenza A/PR/8/34 (H1N1)
[8] = system: influenza A/PR/8/34 (H1N1); experiment: in vitro; details: dog, SI (selective index, CC50/EC50)
[9] = infected mice, abstract says oral administration

Question: COc1cc(-c2oc3cc(O)cc(O)c3c(=O)c2O)ccc1O [Isorhamnetin, isorhamnetin] was tested. Which “lipidation of LC3B-II” value (LC3B) did it give?
Answer: significantly suppressed

Question: And the “virus titer in HA assay (virus yield reduction)” value [1]?
Answer: almost completely suppressed

Question: And the “hemolysis of chicken RBCs by the virus particle (HI assay)” value [2]?
Answer: significantly inhibited

Question: What about the “expression of HA and NA” value [3] of the same compound?
Answer: markedly decreased

Question: And the “virus-induced ROS generation” value [4]?
Answer: significant reduction

Question: And the “virus-induced ERK phosphorylation” value (ERK)?
Answer: significantly suppressed

Question: And the “toxic effect in mice” value ([5]; data not shown)?
Answer: no significant toxic effect

Question: And the survival rate ([5]; infected mice, observed 14 days)?
Answer: 70–80%

Question: What about the “decrease in body weight loss” value [5, 9] of the same compound?
Answer: 25%

Question: What about the “decrease in lung virus titer” value [5, 9] of the same compound?
Answer: 2 folds

Question: What about the body weight loss ([5]; vs PBS control group, 14 days) of the same compound?
Answer: reduced body weight loss

Question: What about the “Virus titer (Embryonated chicken egg)” value [6] of the same compound?
Answer: 10^8 ^* EID50/ml

Question: And the “cell viability after viral infection” value [7]?
Answer: increased cell viability in comparison with quercetin treatment

Question: And the viral infection ([7]; 50 μM, co-treatment for 2 hr)?
Answer: significantly inhibited

Question: And the “influenza virus-induced cell death” value ([7]; post-treatment)?
Answer: apparent suppression

Question: And the selectivity ratio ([8]; Co-treatment (2 hr))?
Answer: > 9

Question: What about the selectivity ratio ([8]; Post-treatment) of the same compound?
Answer: > 12
